According to PMC7029851, “Antibacterial activity of novel dual bacterial DNA type II topoisomerase inhibitors” (PLoS ONE, 2020):
≈ marks a conversion by molar mass, not a printed value. Read-outs that look alike come from different tables or passages of the source.

What was measured:
[1] = system: H. influenzae AcrA- mutant; assay: microbe, parasite or virus in culture; assay type: cell-based; conditions: Haemophilus influenzae
In short: (§1)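 MICs against efflux-deficient mutant strains were determined by broth microdilution following CLSI guidelines.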

[2] = system: K. pneumoniae AcrAB- mutant; assay: microbe, parasite or virus in culture; assay type: cell-based; conditions: Klebsiella pneumoniae
In short: as §1

[3] = system: C. difficile clinical isolates (n = 21); assay: MIC, multidrug-resistant clinical isolates; assay type: cell-based, Clostridium difficile; conditions: Clostridioides difficile, C. difficile clinical isolates (n = 21); for MIC50: read-out: MIC50; for MIC90: read-out: MIC90; for MIC: read-out: MIC range
Description: (§2) The bacterial reference strains used in this study were purchased from ATCC (American Type Culture Collection) via LGC Standards (Middlesex, UK). […] Clinical MDR isolates were provided by Aptuit, the IHMA Europa Sàrl repository (Epalinges, Switzerland) and the Statens Serum Institute (Copenhagen, Denmark).
(§3) MICs were determined by the broth microdilution method (the agar dilution method was used only for N. gonorrhoeae) according to CLSI guidelines.
(§4) The results obtained using clinical isolates are reported as MIC50 and MIC90 values.

S. aureus ATCC 29213 [4] = assay: Time-kill assay; assay type: cell-based, Staphylococcus aureus
Description: (§5) Time-kill experiments were performed according to the procedure reported by Knapp. […] A drug-free control was included in each experiment. The bacterial cultures were standardized to obtain an initial inoculum that ranged from 5×10^5 to 5×10^6 CFU/ml. The cultures were incubated at 37°C in a shaking bath. At 0, 2, 4, 8 and 24-hour intervals, viable counts were performed by spotting (in triplicate) 10 μl aliquots of suitable dilutions of the cultures onto Mueller-Hinton agar (MHA, Oxoid, Basingstoke, UK) plates. After incubation at 37°C for 24 hours, the bactericidal activity, namely, the ability to reduce the initial inoculum by 3 log10 CFU/ml, was assessed for each tested concentration over time.

[5] = system: S. aureus ATCC 29213 and S. aureus BAA-1720; assay: MIC in the presence of 20% human serum
E. coli 4SI = assay: MIC, broth microdilution; assay type: cell-based; conditions: Escherichia coli, ciprofloxacin-resistant
Description: as §3

S. pyogenes APV00083 = assay: MIC, broth microdilution; assay type: cell-based; conditions: Streptococcus pyogenes; S. pyogenes APV00083, ciprofloxacin-susceptible
Description: as §3

A. baumannii ATCC 19606 = assay: MIC, broth microdilution; assay type: cell-based; conditions: Acinetobacter baumannii, ATCC19606; A. baumannii ATCC 19606, ciprofloxacin-susceptible
Description: as §3

A. baumannii APV00473 = assay: MIC, broth microdilution; assay type: cell-based; conditions: Acinetobacter baumannii; A. baumannii APV00473, ciprofloxacin-resistant
Description: as §3

S. pyogenes APV00074 = assay: MIC, broth microdilution; assay type: cell-based; conditions: Streptococcus pyogenes; S. pyogenes APV00074, ciprofloxacin-susceptible
Description: as §3

[6] = system: S. aureus clinical isolates (n = 10); assay: microbe, parasite or virus in culture; assay type: cell-based, Staphylococcus aureus; conditions: for MIC50 / MIC90 / MIC range: S. aureus MDR clinical isolates (n = 10)
Description: as §2, §3, §4

hERG channel = target: T1, hERG channel (Homo sapiens, UniProt Q12809); assay: hERG automated patch clamp assay; assay type: cell-based; conditions: CHO-K1, read-out: IC50 against hERG channels
T1 construct: expressed in transfected cells; host or cells: CHO-K1
T1 sequence (Q12809 whole entry): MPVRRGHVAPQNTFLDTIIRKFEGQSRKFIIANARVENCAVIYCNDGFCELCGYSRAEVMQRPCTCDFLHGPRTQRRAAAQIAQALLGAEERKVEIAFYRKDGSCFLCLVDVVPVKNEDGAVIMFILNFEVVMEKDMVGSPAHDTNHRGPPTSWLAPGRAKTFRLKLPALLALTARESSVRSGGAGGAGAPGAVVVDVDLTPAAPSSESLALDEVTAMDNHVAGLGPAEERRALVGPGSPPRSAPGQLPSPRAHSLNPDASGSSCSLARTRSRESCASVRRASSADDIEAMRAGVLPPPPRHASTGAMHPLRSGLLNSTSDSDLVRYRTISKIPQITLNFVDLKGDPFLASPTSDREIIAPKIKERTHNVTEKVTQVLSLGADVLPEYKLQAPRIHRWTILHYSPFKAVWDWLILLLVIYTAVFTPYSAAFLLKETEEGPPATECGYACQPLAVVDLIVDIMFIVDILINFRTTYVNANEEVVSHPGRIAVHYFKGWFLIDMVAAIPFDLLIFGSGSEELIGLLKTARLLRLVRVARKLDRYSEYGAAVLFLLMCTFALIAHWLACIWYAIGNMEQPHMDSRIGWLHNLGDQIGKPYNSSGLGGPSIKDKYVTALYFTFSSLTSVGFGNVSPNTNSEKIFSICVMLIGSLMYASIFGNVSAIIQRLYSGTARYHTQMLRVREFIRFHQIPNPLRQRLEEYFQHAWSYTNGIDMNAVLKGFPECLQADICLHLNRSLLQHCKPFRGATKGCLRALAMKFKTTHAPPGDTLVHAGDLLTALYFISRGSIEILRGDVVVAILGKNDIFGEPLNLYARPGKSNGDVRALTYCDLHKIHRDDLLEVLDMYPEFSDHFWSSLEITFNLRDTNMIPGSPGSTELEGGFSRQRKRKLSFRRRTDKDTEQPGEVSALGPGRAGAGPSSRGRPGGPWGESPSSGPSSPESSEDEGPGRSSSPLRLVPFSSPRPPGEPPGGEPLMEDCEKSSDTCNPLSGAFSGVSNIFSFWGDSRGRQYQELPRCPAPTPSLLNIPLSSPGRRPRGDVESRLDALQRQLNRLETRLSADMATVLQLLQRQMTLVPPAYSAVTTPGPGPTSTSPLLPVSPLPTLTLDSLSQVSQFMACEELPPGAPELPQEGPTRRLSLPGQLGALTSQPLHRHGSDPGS
Text: hERG automated patch clamp assay. The human recombinant ERG CHO-K1 cell line was used in an automated patch clamp assay (qPatch system) to evaluate the hERG channel blockade potential of compounds 1 and 2 [36]. Concentration (log) response curves were fitted to a logistic equation to generate estimates of the 50% inhibitory value.

[7] = system: A. baumannii clinical isolates (n = 10); assay: microbe, parasite or virus in culture; assay type: cell-based, Acinetobacter baumannii; conditions: for MIC50 / MIC90: Acinetobacter baumannii
Description: as §2, §3, §4

S. aureus ATCC 29213 [8] = assay: Minimal bactericidal concentration; assay type: cell-based, Staphylococcus aureus
Description: (§6) Minimal bactericidal concentrations (MBCs) were determined according to the procedure described by Knapp. Viable counts were performed after plates were incubated at 37°C for 24 hours. The MBC was defined as the lowest concentration that reduced the viability of the initial bacterial inoculum by ≥99.9%.

S. aureus BAA-1720 = assay: Minimal bactericidal concentration; assay type: cell-based, Staphylococcus aureus
Description: as §6

[9] = system: E. coli clinical isolates (n = 36); assay: MIC, multidrug-resistant clinical isolates; assay type: cell-based, Escherichia coli; conditions: Escherichia coli, E. coli MDR clinical isolates (n = 36); for MIC50: read-out: MIC50; for MIC90: read-out: MIC90
Description: as §2, §3, §4

E. coli ATCC 25922 [10] = assay: Time-kill assay; assay type: cell-based, Escherichia coli; conditions: 1× to 4× MIC, over 24 hours
Description: as §5

C. difficile ATCC 700057 = assay: MIC, broth microdilution; assay type: cell-based, Clostridium difficile; conditions: Clostridioides difficile, ATCC700057
Description: MICs were determined by the broth microdilution method (the agar dilution method was used only for N. gonorrhoeae) according to CLSI guidelines. […] The MIC values of antibiotics used in clinical practice were interpreted according to the susceptibility interpretive criteria reported in the appropriate CLSI Tables (M100-S25, CLSI, 2015).

E. coli ATCC 25922 [11] = assay: Post-antibiotic effect (PAE); assay type: cell-based, Escherichia coli; conditions: 1× and 4× MIC
Description: A drug-free control was included in each experiment. After being exposed to the drug for 1 hour, viable counts were conducted in triplicate by spotting aliquots (10 μl) of suitable dilutions onto MHA plates. The drugs were removed by diluting the bacterial cultures (1:1000) in Cation-Adjusted Mueller-Hinton Broth (CAMHB; Sigma-Aldrich). The diluted cultures were incubated in a shaking bath at 37°C. To monitor the ongoing suppression of bacterial growth over time (5 hours), aliquots from each broth culture were periodically collected, diluted and plated to perform subsequent viable counts (in triplicate).

[12] = system: CYP1A, CYP2B6, CYP2C8, CYP2C9, CYP2D6 and CYP3A4; assay: Inhibition of P450 isoenzymes; assay type: in vitro ADME; conditions: human, read-out: % inhibition of CYP450 isoenzymes other than CYP2C19
Text: (§7) Inhibition of P450 isoenzymes.

CYP2C19 = CYP2C19 (Homo sapiens, UniProt P33261); assay: Inhibition of P450 isoenzymes; assay type: in vitro ADME
Sequence of CYP2C19 (P33261 whole entry): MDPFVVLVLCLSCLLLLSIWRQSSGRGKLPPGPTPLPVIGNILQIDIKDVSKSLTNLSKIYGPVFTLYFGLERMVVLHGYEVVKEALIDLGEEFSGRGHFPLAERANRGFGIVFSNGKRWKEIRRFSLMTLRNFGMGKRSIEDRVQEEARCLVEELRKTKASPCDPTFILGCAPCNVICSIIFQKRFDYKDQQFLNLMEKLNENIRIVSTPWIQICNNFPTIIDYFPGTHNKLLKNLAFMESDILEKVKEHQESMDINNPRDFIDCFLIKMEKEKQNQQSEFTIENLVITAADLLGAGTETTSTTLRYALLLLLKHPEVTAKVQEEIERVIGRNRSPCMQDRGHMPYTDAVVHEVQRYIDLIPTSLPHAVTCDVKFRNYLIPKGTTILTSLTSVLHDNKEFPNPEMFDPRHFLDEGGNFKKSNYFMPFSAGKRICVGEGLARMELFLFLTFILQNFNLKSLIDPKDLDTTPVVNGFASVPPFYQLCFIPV
Text: as §7

[13] = Staphylococcus aureus, read-out: MIC50
[14] = Staphylococcus aureus, read-out: MIC90

In the case of O=C1COc2ncc(F)cc2N1[C@H]1CC[C@H](NCc2cc3c(=O)oc4ccc(F)cc4c3[nH]2)CC1 [Compound 1, 8-fluoro-2-({[trans-4-(7-fluoro-2-oxo-2,3-dihydro-1H-pyrido[2,3-b][1,4]oxazin-1-yl)cyclohexyl]amino}methyl)[1]benzopyrano[4,3-b]pyrrol-4(1H)-one], the MIC [1] is reported as ≤ 0.016 µg/mL, the MIC [2] is reported as 0.03 µg/mL (≈ 0.0624 µM) and the MIC50 [3] is reported as 1 µg/mL (≈ 2.08 µM). For the same molecule, the MIC90 [3] was 1 µg/mL (≈ 2.08 µM), the MIC [3] was 0.25 to 2 µg/mL (≈ 0.52 to 4.16 µM) and the “Bactericidal activity in time-kill (reduction of 3 log10 CFU/ml)” value (S. aureus ATCC 29213 [4]; 1× to 4× MIC (compound 1 also 8× and 16× MIC), over 24 hours) was “bactericidal effect”. The “Bactericidal activity in time-kill” value (S. aureus ATCC 29213 [4]; 8× and 16× MIC, after 24 hour incubation) was “effective”, the “Bactericidal activity in time-kill” value (S. aureus ATCC 29213 [4]; concentrations up to 4× MIC) was “no bactericidal activity” and the “Change of MIC in the presence of 20% human serum” value [5] was “two-fold increase”. For the same molecule, the MIC (E. coli 4SI) was 0.25 µg/mL (≈ 0.52 µM), the MIC (S. pyogenes APV00083) was 1 µg/mL (≈ 2.08 µM) and the MIC (A. baumannii ATCC 19606) was ≤ 0.06 µg/mL. The MIC (A. baumannii APV00473) was ≤ 0.06 µg/mL, the MIC (S. pyogenes APV00074) was 0.5 µg/mL (≈ 1.04 µM) and the MIC50 [6] was 0.125 µg/mL (≈ 0.26 µM). The MIC90 [6] was 0.5 µg/mL (≈ 1.04 µM), the MIC range [6] was 0.12 to 0.5 µg/mL and the MIC ([6]; Staphylococcus aureus, MRSA, S. aureus APV0063, MRSA) was 0.12 µg/mL (≈ 0.25 µM). It also gave an MIC ([6]; Staphylococcus aureus, MRSA, S. aureus APV0064, MRSA) of 0.12 µg/mL (≈ 0.25 µM), an MIC ([6]; Staphylococcus aureus, MRSA, S. aureus APV0065, MRSA) of 0.12 µg/mL (≈ 0.25 µM) and an MIC ([6]; Staphylococcus aureus, S. aureus APV00045, M (macrolide resistance)) of 0.5 µg/mL (≈ 1.04 µM). For the same molecule, the MIC ([6]; Staphylococcus aureus, S. aureus APV0048, MLSi) was 0.25 µg/mL (≈ 0.52 µM), the MIC ([6]; Staphylococcus aureus, S. aureus APV0049, MLSi) was 0.5 µg/mL (≈ 1.04 µM) and the MIC ([6]; Staphylococcus aureus, S. aureus APV0052, MLSc) was 0.5 µg/mL (≈ 1.04 µM). The MIC ([6]; Staphylococcus aureus, S. aureus APV0053, MLSc) was 0.25 µg/mL (≈ 0.52 µM), the MIC ([6]; Staphylococcus aureus, S. aureus APV00280, M (macrolide resistance)) was 0.12 µg/mL (≈ 0.25 µM) and the MIC ([6]; Staphylococcus aureus, S. aureus APV00281, M (macrolide resistance)) was 0.12 µg/mL (≈ 0.25 µM). For the same molecule, the MIC50 [6, 13] was 0.12 µg/mL (≈ 0.25 µM), the MIC90 [6, 14] was 0.5 µg/mL (≈ 1.04 µM) and the IC50 (hERG channel) was 8.9 µM. The MIC range [7] was ≤0.06 to 0.12 µg/mL, the MIC50 [7] was 0.12 µg/mL (≈ 0.25 µM) and the MIC90 [7] was 0.12 µg/mL (≈ 0.25 µM). For the same molecule, the MBC/MIC (S. aureus ATCC 29213 [8]) was 16, the MBC (S. aureus ATCC 29213 [8]; Staphylococcus aureus, ATCC29213, ≥99.9% reduction of inoculum) was 4 µg/mL (≈ 8.33 µM) and the MBC/MIC (S. aureus BAA-1720) was 2. It also gave an MBC (S. aureus BAA-1720; Staphylococcus aureus, BAA1720, ≥99.9% reduction of inoculum) of 1 µg/mL (≈ 2.08 µM), an MIC [9] of 0.25 to 16 µg/mL (≈ 0.52 to 33.3 µM) and an MIC50 [9] of 1 µg/mL (≈ 2.08 µM). The MIC90 [9] was 1 µg/mL (≈ 2.08 µM), the “Bactericidal activity in time-kill (reduction of 3 log10 CFU/ml)” value (E. coli ATCC 25922 [10]) was “bactericidal effect” and the MIC (C. difficile ATCC 700057) was 1 µg/mL (≈ 2.08 µM). The “PAE compared with ciprofloxacin” value (E. coli ATCC 25922 [11]) was “consistently higher”, the inhibition at 10 µM [12] was ≤ 35% and the inhibition at 10 µM (CYP2C19) was 52%.

Cl.O=c1oc2ccc(F)cc2c2[nH]c(CN[C@H]3CC[C@H](n4c(=O)ccc5ncc(F)cc54)CC3)cc12 [Compound 3, 8-fluoro-2-({[trans-4-(7-fluoro-2-oxo-1,5-naphthyridin-1(2H)-yl)cyclohexyl]amino}methyl)[1]benzopyrano[4,3-b]pyrrol-4(1H)-one hydrochloride] was tested, and the MIC [1] was 0.06 µg/mL, the MIC [2] was ≤ 0.016 µg/mL and the MIC50 [3] was 0.12 µg/mL. The MIC90 [3] was 0.25 µg/mL, the MIC [3] was 0.06 to 0.25 µg/mL and the MIC (E. coli 4SI) was 0.12 µg/mL. The MIC (S. pyogenes APV00083) was 0.12 µg/mL, the MIC (A. baumannii ATCC 19606) was ≤ 0.06 µg/mL and the MIC (A. baumannii APV00473) was ≤ 0.06 µg/mL. For the same molecule, the MIC (S. pyogenes APV00074) was ≤ 0.06 µg/mL, the MIC range [6] was ≤0.06 µg/mL and the MIC50 [6, 13] was ≤ 0.06 µg/mL. The MIC90 [6, 14] was ≤ 0.06 µg/mL, the MIC range [7] was ≤0.06 to 0.12 µg/mL and the MIC50 [7] was ≤ 0.06 µg/mL. The MIC90 [7] was 0.12 µg/mL, the MIC [9] was 0.25 to 4 µg/mL and the MIC50 [9] was 1 µg/mL. It also gave an MIC90 [9] of 2 µg/mL and an MIC (C. difficile ATCC 700057) of 0.25 µg/mL.
